Source: patent US20060199966A1, “Indol-2-amides as glycogen phosphorylase inhibitors” (AstraZeneca AB, priority 2003, published 2006)
≈ marks a conversion by molar mass, not a printed value.

Experiments:
[1] = biological target: T1, Human recombinant liver glycogen phosphorylase a (hrl GPa) (Homo sapiens, UniProt P06737); assay: Glycogen phosphorylase inhibition, multienzyme coupled assay; type: biochemical; conditions: hrl GPa 20 nM, 6 hours at 30° C.
T1 sequence (P06737 1-847): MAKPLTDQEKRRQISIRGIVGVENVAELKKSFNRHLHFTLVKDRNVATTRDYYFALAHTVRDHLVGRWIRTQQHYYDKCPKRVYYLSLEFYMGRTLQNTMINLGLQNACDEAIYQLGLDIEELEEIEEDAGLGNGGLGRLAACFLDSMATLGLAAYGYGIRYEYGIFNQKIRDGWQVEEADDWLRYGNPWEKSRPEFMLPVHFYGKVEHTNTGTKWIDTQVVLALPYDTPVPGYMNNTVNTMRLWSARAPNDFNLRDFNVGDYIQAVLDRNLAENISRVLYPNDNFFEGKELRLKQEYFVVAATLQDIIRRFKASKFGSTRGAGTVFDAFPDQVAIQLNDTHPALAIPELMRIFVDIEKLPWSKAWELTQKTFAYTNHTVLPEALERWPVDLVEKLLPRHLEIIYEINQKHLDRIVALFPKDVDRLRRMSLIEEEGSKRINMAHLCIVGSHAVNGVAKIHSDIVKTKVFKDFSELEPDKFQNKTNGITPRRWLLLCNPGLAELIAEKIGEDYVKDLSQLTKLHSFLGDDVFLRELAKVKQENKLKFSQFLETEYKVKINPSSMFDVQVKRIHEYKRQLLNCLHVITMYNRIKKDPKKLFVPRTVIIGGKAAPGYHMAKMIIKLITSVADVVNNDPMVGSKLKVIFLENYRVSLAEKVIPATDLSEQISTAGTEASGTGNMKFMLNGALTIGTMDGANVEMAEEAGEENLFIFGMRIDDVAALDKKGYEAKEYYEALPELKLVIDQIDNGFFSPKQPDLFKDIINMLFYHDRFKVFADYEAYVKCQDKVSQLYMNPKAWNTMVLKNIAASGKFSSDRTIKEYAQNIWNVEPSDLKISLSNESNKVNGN
Method: The activity of the compounds is alternatively determined by measuring the inhibitory effect of the compounds on glycogen degradation, the production of glucose-1-phosphate from glycogen is monitored by the multienzyme coupled assay, as described in EP 0 846 464 A2, general method of Pesce et al (Pesce, M A, Bodourian, S H, Harris, R C, and Nicholson, J F (1977) Clinical Chemistry 23, […]). The reactions were in 384 well microplate format in a volume of 50 μl. The change in fluorescence due to the conversion of the co-factor NAD to NADH is measured at 340 nm excitation, 465 nm emission in a Tecan Ultra Multifunctional Microplate Reader. The reaction is in 50 mM […], 3.5 mM KH2PO4, 2.5 mM MgCl2, 2.5 mM ethylene glycol-bis(b-aminoethyl ether) N,N,N,′N′-tetraacetic acid, 100 mM KCl, 8 mM D-(+)-glucose pH7.2, containing 0.5 mM dithiothreitol, the assay buffer solution. Human recombinant liver glycogen phosphorylase a (hrl GPa) 20 nM is pre-incubated in assay buffer solution with 6.25 mM NAD, 1.25 mg type E1 glycogen at 1.25 mg ml^−1 the reagent buffer, for 30 minutes. […] The non-inhibited activity of GPa is measured in the presence of 10 μl 5% DMSO in assay buffer solution and maximum inhibition measured in the presence of 5 mgs ml^−1 N-ethylmaleimide. […] Relative Fluoresence Units (RFUs) are measured at 340 nm excitation, 465 nm emission. […]

Thermodynamic solubility = type: physicochemical; conditions: phosphate buffer, pH 7.4, aqueous buffer, thermodynamic from solid, 0.1 M phosphate at pH7.4 for 24 hours
Method: The thermodynamic solubility data for the compounds of the invention as given above may be measured by agitating the compound in 0.1 M phosphate at pH7.4 for 24 hours, then analysis of the supernatant (for example by LCUV/MS) using a solution (for example in DMSO) of known concentration as the calibrant.

db/db and ob/ob mice = conditions: dose related; cited from earlier work
hepatocytes = conditions: cited from earlier work; for glucose output: glucagon stimulated
conscious dogs = conditions: following a glucagon challenge; cited from earlier work

Row | SMILES | IC50 [1] [µM] | solubility at 24 h (Thermodynamic solubility) [µM] | plasma glucose concentration (db/db and ob/ob mice) | glucagon stimulated glycogenolysis (hepatocytes) | glucose output (hepatocytes) | further results
1 | CN(C(=O)[C@@H](N)CO)[C@@H]1c2ccccc2C[C@H]1NC(=O)c1cc2cc(Cl)ccc2[nH]1.Cl [Example 2, 5-Chloro-N-{(1R,2R)-1-[methyl(seryl)amino]-2,3-dihydro-1H-inden-2-yl}-1H-indole-2-carboxamide hydrochloride] | 0.5 | 173 | – | – | – | –
2 | O=C(N[C@@H](Cc1ccc(F)cc1)C(=O)N1CCC(O)CC1)c1cc2cc(Cl)ccc2[nH]1 [CP320626] | – | – | reduced, in a dose related manner | reduce | reduce | –
3 | CN(C)C(=O)[C@H](O)[C@H](Cc1ccccc1)NC(=O)c1cc2cc(Cl)ccc2[nH]1 [CP91149] | – | – | reduced, in a dose related manner | reduce | reduce | –
4 | CCN1C(C)=C(C(=O)OC(C)C)C(c2ccccc2Cl)C2=C1COC2=O (stereo not drawn) [Bay R 3401] | – | – | – | – | – | arterial plasma glucose (conscious dogs): reduced significantly; hepatic glucose output (conscious dogs): reduced significantly
5 | CN(C(=O)[C@H](O)CO)[C@@H]1c2ccccc2C[C@H]1NC(=O)c1cc2cc(Cl)ccc2[nH]1 [Example 19, 5-Chloro-N-{(1R,2R)-1-[[(2R)-2,3-dihydroxypropanoyl](methyl)amino]-2,3-dihydro-1H-inden-2-yl}-1H-indole-2-carboxamide] | 0.11 | 119 (≈ 50.9 µg/mL) | – | – | – | –
